Measurements from patent US20200261375A1, “Use Of (+)-2-Borneol In Preparation Of Drug For Promoting Upregulation Of Expression Of Sphingosine Kinase-1 And/Or BDNF” (SUZHOU PHARMAVAN CO, LTD., priority 2017, published 2020).

What was measured:
Type in all cases: in vivo
[1] = test system: brain-derived neurotrophic factor (BDNF); assay: Rat model of focal cerebral ischemia-reperfusion (MCAO), genome-wide expression profiling of brain tissue around the infarct area: BDNF; conditions: 2 mg/kg once by tail vein injection 2 hours after ischemia-reperfusion, brain tissue around the infarct area 48 hours after reperfusion, relative to the sham-operated group
Method: (§1) Rat model of focal cerebral ischemia-reperfusion A rat model of middle cerebral artery occlusion (MCAD)-induced cerebral ischemia-reperfusion was prepared by thread occlusion of the internal carotid artery. A drug was administered once by tail vein injection 2 hours after ischemia-reperfusion. One dose group was set for (+)-2-borneol, i.e. 2 mg/kg. 48 hours after the cerebral ischemia-reperfusion, about a soybean size of brain tissue around the infarct area was harvested, sent to CapitalBio Technology Inc., Beijing, and subjected to genome-wide expression profiling by using Affymetrix GeneChip Rat Genome 230 2.0 Array Affymetrix Rat (Latin: Rattus norvegicus) Genome 230 2.0 chip.

[2] = test system: mouse model of focal cerebral motor cortex ischemia; assay: Mouse model of focal motor cortex ischemia (photochemical), grid test; conditions: 3.0, 1.5, 0.75 mg/kg tail vein injection, Day 14, 28, 42 after ischemic injury
Method: (§2) Long-term pharmacodynamic assay of (+)-2-borneol in a mouse model of focal motor cortex ischemia A mouse model of focal cerebral motor cortex ischemia was induced by photochemical method. Three dose groups were set for (+)-2-borneol, i.e. 3.0, 1.5, 0.75 mg/kg, respectively. Edaravone at a dose of 9 mg/kg was used as a positive control. A drug was administered once by tail vein injection 2 hours after cortex ischemia, and then administered every 24 hours, for a total of 14 administrations. A grid test was used to determine respectively the failure rate of forelimb on Day 14, Day 28 and Day 42 after ischemic injury; and a cylinder test was used to determine the motor asymmetry index of the affected forelimb and the contralateral forelimb on Day 14, Day 28 and Day 42 after ischemic injury to determine its effect on motor function. After the behavior measurements, 5 animals were randomly selected from each group and killed, and the brain was harvested for Golgi staining to determine the neuronal survival and dendritic richness in the penumbra area.

[3] = test system: mouse model of focal cerebral motor cortex ischemia; assay: Mouse model of focal motor cortex ischemia (photochemical), Golgi staining of brain; conditions: Golgi staining after the behavior measurements; 3.0, 1.5, 0.75 mg/kg tail vein injection, 14 administrations
Method: as §2

[4] = test system: mouse model of focal cerebral motor cortex ischemia; assay: Mouse model of focal motor cortex ischemia (photochemical), cylinder test; conditions: 3.0, 1.5, 0.75 mg/kg tail vein injection, 14 administrations, Day 14, 28, 42 after ischemic injury
Method: as §2

[5] = test system: sphingosine kinase-1 (Sphk1); assay: Rat model of focal cerebral ischemia-reperfusion (MCAO), genome-wide expression profiling of brain tissue around the infarct area: Sphk1; conditions: 2 mg/kg once by tail vein injection 2 hours after ischemia-reperfusion, brain tissue around the infarct area 48 hours after reperfusion, relative to the sham-operated group / model group
Method: as §1

Structure (SMILES): CC1(C)[C@@H]2CC[C@@]1(C)[C@@H](O)C2 [(+)-2-borneol]
- brain-derived neurotrophic factor (BDNF) expression up-regulated [1]: 2.67 fold
- motor function of mice with photochemically induced injury ([2]; 14 administrations every 24 hours): significantly improve
- failure rate of the left forelimb (affected side) ([2]; grid test, 14 administrations): significant decreases
- dendritic length around the ischemic area [3]: significant improvements
- dendritic spine density around the ischemic area [3]: significant improvements
- number of dendritic branches around the ischemic area [3]: significant improvements
- asymmetry index of both forelimbs [4]: significant decreases
- sphingosine kinase-1 (Sphk1) expression up-regulated [5]: 2.64 fold
